Results reported in patent US20230203043A1, “NOVEL IMIDAZOPYRAZINE DERIVATIVES” (Hoffmann-La Roche Inc., priority 2020, published 2023).
Counter-ions that a name gives are not always drawn. Like-named read-outs stand apart in the source and are kept apart here.

System: Acinetobacter baumannii ATCC17961
Test: Antimicrobial susceptibility testing: 90% growth inhibitory concentration (IC90) determination in Iso-Sensitest broth, OD600 growth
Assay type: cell-based
In short: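 Growth inhibition is calculated during the logarithmic phase from OD600 readings taken every 20 minutes across 16 h at 35±2° C. Bacteria at ~5×10^(5) CFU/ml face twofold dilution series (e.g. 50 to 0.097 μM final).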

[1] = Acinetobacter baumannii, ATCC17961, 16 h, read-out: A. baumannii ATCC 17961 IC90 (uM), strain ATCC 17961, OD600 growth over 16 h
[2] = Acinetobacter baumannii, ATCC17961, 16 h, strain ATCC 17961, OD600 growth over 16 h, read-out: A. baumannii ATCC 17961 IC90

SMILES	IC90 [2]	IC90 [1]	further results
O=C(N[C@H]1CNC[C@@H]1O)N1CCN(C(=O)c2ccc(Nc3nccn4c(-c5c[nH]nc5C(F)(F)F)cnc34)cc2Cl)CC1 [Example 440, 4-[2-chloro-4-[[3-[3-(trifluoromethyl)-1H-pyrazol-4-yl]imidazo[1,2-a]pyrazin-8-yl]amino]benzoyl]-N-[(3S,4S)-4-hydroxypyrrolidin-3-yl]piperazine-1-carboxamide formate]		0.497 µM	
Cc1cc(Nc2nccn3c(-c4c[nH]nc4C(F)(F)F)cnc23)ccc1C(=O)N1CCN(C(=O)CCN)CC1 [Example 418, 3-amino-1-[4-[2-methyl-4-[[3-[3-(trifluoromethyl)-1H-pyrazol-4-yl]imidazo[1,2-a]pyrazin-8-yl]amino]benzoyl]piperazin-1-yl]propan-1-one formate]		0.583 µM	
N#CCCn1cc(-c2cnc3c(Nc4ccc(C(=O)N5CCN(C(=O)CCN)CC5)c(Cl)c4)nccn23)c(C(F)(F)F)n1 [Example 256, 3-[4-[8-[4-[4-(3-aminopropanoyl)piperazine-1-carbonyl]-3-chloroanilino]imidazo[1,2-a]pyrazin-3-yl]-3-(trifluoromethyl)pyrazol-1-yl]propanenitrile formate]		0.358 µM	
Cc1cc(Nc2nccn3c(-c4cn(CC#N)nc4C(F)(F)F)cnc23)ccc1C(=O)NCC(=O)N[C@@H]1CCNC1 [Example 750, 4-[[3-[1-(cyanomethyl)-3-(trifluoromethyl)pyrazol-4-yl]imidazo[1,2-a]pyrazin-8-yl]amino]-2-methyl-N-[2-oxo-2-[[(3R)-pyrrolidin-3-yl]amino]ethyl]benzamide formate]		0.625 µM	
N#CCn1cc(-c2cnc3c(Nc4ccc(C(=O)N5CCN(C(=O)[C@H]6CC[C@@H](N)C6)CC5)c(Cl)c4)nccn23)c(C(F)(F)F)n1 [Example 192, 2-[4-[8-[4-[4-[(1S,3R)-3-aminocyclopentanecarbonyl]piperazine-1-carbonyl]-3-chloroanilino]imidazo[1,2-a]pyrazin-3-yl]-3-(trifluoromethyl)pyrazol-1-yl]acetonitrile formate]		0.208 µM	
CCc1cc(Nc2nccn3c(-c4cn(C)nc4C(F)(F)F)cnc23)ccc1C(=O)NCCNC(=O)[C@@H]1C[C@@](O)(CC)CN1 [Example 446, (2S,4S)-4-ethyl-N-[2-[[2-ethyl-4-[[3-[1-methyl-3-(trifluoromethyl)pyrazol-4-yl]imidazo[1,2-a]pyrazin-8-yl]amino]benzoyl]amino]ethyl]-4-hydroxypyrrolidine-2-carboxamide formate]		2.27 µM	
C[C@@H](NC(=O)c1ccc(Nc2nccn3c(-c4c[nH]nc4C(F)(F)F)cnc23)cc1Cl)C(=O)NC1CC(N)C1 (stereo partly drawn) [Example 92, N-[(2R)-1-[(3-aminocyclobutyl)amino]-1-oxopropan-2-yl]-2-chloro-4-[[3-[3-(trifluoromethyl)-1H-pyrazol-4-yl]imidazo[1,2-a]pyrazin-8-yl]amino]benzamide formate]		0.947 µM	
CCc1cc(Nc2nccn3c(-c4c[nH]nc4C(F)(F)F)cnc23)ccc1C(=O)NCCNC(=O)[C@H]1C[C@@H](N)C1 [Example 804, N-(2-((1s,3s)-3-aminocyclobutane-1-carboxamido)ethyl)-2-ethyl-4-((3-(3-(trifluoromethyl)-1H-pyrazol-4-yl)imidazo[1,2-a]pyrazin-8-yl)amino)benzamide formate]			IC90 (strain ATCC 17961, OD600 growth over 16 h, read-out: A. baumannii ATCC 17961 IC90): 0.511 µM
N#CCn1cc(-c2cnc3c(Nc4ccc(C(=O)N5CCN(CC(=O)NC6CNC6)CC5)c(Cl)c4)nccn23)c(C(F)(F)F)n1 [Example 604, N-(azetidin-3-yl)-2-(4-(2-chloro-4-((3-(1-(cyanomethyl)-3-(trifluoromethyl)-1H-pyrazol-4-yl)imidazo[1,2-a]pyrazin-8-yl)amino)benzoyl)piperazin-1-yl)acetamide formate]		0.602 µM	
NCCOCCNC(=O)c1ccc(Nc2nccn3c(-c4cn(CC(F)F)nc4C(F)(F)F)cnc23)cc1F [Example 809, N-(2-(2-aminoethoxy)ethyl)-4-((3-(1-(2,2-difluoroethyl)-3-(trifluoromethyl)-1H-pyrazol-4-yl)imidazo[1,2-a]pyrazin-8-yl)amino)-2-fluorobenzamidei hydrochloride]		0.17 µM	

Continued, in another order:

IC90 [2]	SMILES	IC90 [1]	further results
1.06 µM	Cc1cc(Nc2nccn3c(-c4cn(CC#N)nc4C(F)(F)F)cnc23)ccc1C(=O)NCC(=O)N[C@H]1CCNC1 [Example 780, 4-[[3-[1-(cyanomethyl)-3-(trifluoromethyl)pyrazol-4-yl]imidazo[1,2-a]pyrazin-8-yl]amino]-2-methyl-N-[2-oxo-2-[[(3S)-pyrrolidin-3-yl]amino]ethyl] benzamide formate]		
0.988 µM	CCc1cc(Nc2nccn3c(-c4cn(CC(F)F)nc4C(F)F)cnc23)ccc1C(=O)N1CCN(C(=O)[C@H](C)N)CC1 [Example 775, (S)-2-amino-1-(4-(4-((3-(1-(2,2-difluoroethyl)-3-(difluoromethyl)-1H-pyrazol-4-yl)imidazo[1,2-a]pyrazin-8-yl)amino)-2-ethylbenzoyl)piperazin-1-yl)propan-1-one]		
0.243 µM	C#CCn1cc(-c2cnc3c(Nc4cc(C)c(C(=O)N5CCN(C(=O)[C@H]6CC[C@H](O)N6)CC5)c(F)c4)nccn23)c(C(F)(F)F)n1 [Example 646, (4-(2-fluoro-6-methyl-4-((3-(1-(prop-2-yn-1-yl)-3-(trifluoromethyl)-1H-pyrazol-4-yl)imidazo[1,2-a]pyrazin-8-yl)amino)benzoyl)piperazin-1-yl)((2R,5S)-5-hydroxypyrrolidin-2-yl)methanone]		
0.157 µM	CCc1cc(Nc2nccn3c(-c4cn(CC#N)nc4C(F)(F)F)cnc23)ccc1C(=O)NCCNC(=O)[C@@H]1CC[C@H](N)C1 [Example 494, N-(2-((1R,3S)-3-aminocyclopentane-1-carboxamido)ethyl)-4-((3-(1-(cyanomethyl)-3-(trifluoromethyl)-1H-pyrazol-4-yl)imidazo[1,2-a]pyrazin-8-yl)amino)-2-ethylbenzamide formate]		
0.173 µM	CCc1cc(Nc2nccn3c(-c4cn(CCF)nc4C(F)(F)F)cnc23)ccc1C(=O)NCCOC[C@@H](C)N [Example 150, N-[2-[(2R)-2-aminopropoxy]ethyl]-2-ethyl-4-[[3-[1-(2-fluoroethyl)-3-(trifluoromethyl)pyrazol-4-yl]imidazo[1,2-a]pyrazin-8-yl]amino]benzamide]		
0.968 µM	CCc1cc(Nc2nccn3c(-c4c[nH]nc4C(F)(F)F)cnc23)ccc1C(=O)NCCOCCN1CCOCC1 [Example 772, 2-ethyl-N-(2-(2-morpholinoethoxy)ethyl)-4-((3-(3-(trifluoromethyl)-1H-pyrazol-4-yl)imidazo[1,2-a]pyrazin-8-yl)amino)benzamide]		
2.43 µM	CCc1cc(Nc2nccn3c(-c4c[nH]nc4C(F)(F)F)cnc23)ccc1C(=O)NCCC1(N)CC1 [Example 263, N-[2-(1-aminocyclopropyl)ethyl]-2-ethyl-4-[[3-[3-(trifluoromethyl)-1H-pyrazol-4-yl]imidazo[1,2-a]pyrazin-8-yl]amino]benzamide]		
0.598 µM	C#CCn1cc(-c2cnc3c(Nc4ccc(C(=O)N5CCN(C(=O)[C@@H](C)N)CC5)c(CC)c4)nccn23)c(C(F)F)n1 [Example 747, (R)-2-amino-1-(4-(4-((3-(3-(difluoromethyl)-1-(prop-2-yn-1-yl)-1H-pyrazol-4-yl)imidazo[1,2-a]pyrazin-8-yl)amino)-2-ethylbenzoyl)piperazin-1-yl)propan-1-one]		
